Source: publication PMC6934184, “Selective DNA-PKcs inhibition extends the therapeutic index of localized radiotherapy and chemotherapy” (The Journal of Clinical Investigation, 2019)

Biological target: T1, SIK3 (Homo sapiens, UniProt Q9Y2K2)
T1 construct: purchased Thermo Fisher Scientific (Life Technologies) SelectScreen
Test: SelectScreen LanthaScreen
Assay type: binding
Details: 1 µM
Summary of the method: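 Percent values come from Thermo SelectScreen profiling of NU5455, combining activity and binding assays. CSF1R was run in Z'LYTE format at Km app ATP, and CAMK1 in Adapta format with ATP listed at 10.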

T1 sequence (Q9Y2K2 whole entry): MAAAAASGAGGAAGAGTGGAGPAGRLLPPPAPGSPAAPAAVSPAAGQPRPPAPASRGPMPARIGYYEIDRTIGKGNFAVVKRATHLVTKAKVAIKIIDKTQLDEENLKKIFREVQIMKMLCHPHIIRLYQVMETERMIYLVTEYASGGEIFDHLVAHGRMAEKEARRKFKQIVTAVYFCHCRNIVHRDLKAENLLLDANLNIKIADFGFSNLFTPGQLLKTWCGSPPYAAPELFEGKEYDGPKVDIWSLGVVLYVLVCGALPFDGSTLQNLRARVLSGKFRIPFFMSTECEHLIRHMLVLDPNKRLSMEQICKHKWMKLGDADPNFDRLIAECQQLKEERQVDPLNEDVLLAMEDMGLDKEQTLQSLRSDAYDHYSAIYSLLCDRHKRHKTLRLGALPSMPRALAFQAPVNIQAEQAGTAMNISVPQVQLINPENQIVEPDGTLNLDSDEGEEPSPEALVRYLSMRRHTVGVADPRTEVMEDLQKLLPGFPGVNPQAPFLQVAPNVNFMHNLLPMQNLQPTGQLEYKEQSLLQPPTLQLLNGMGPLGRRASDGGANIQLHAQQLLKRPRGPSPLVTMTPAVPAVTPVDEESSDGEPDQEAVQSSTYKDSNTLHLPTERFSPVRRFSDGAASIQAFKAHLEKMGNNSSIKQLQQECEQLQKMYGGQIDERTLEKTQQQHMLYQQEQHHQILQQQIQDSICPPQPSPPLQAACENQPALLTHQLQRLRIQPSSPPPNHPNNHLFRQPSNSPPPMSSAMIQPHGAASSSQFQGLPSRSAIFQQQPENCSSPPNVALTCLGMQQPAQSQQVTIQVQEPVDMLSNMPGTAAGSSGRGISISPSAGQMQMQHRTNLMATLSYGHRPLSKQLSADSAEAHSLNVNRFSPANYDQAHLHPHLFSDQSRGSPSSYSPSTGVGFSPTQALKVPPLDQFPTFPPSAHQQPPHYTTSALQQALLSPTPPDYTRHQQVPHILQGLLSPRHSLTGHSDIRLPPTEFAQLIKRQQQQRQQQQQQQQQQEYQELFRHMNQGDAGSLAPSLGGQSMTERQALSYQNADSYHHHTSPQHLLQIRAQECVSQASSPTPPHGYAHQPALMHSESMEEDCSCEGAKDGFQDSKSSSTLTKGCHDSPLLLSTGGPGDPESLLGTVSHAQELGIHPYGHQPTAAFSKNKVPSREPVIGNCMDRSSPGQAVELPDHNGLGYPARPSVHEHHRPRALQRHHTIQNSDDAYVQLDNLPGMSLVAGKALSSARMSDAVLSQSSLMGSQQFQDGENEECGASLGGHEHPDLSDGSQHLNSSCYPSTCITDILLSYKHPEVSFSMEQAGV

## CN(C(=O)CN1CCOCC1)c1ccc2sc3c(-c4cccc5c(=O)cc(N6CC7CCC(C6)O7)oc45)cccc3c2c1 [NU5455]
  % displacement: 16.1%
